Drawing on patent publication US8481544B2, “Antibacterial compositions” (Biota Europe Limited, priority 2006, dated 2013), this text covers MIC for 40 molecules.

In brackets after ≈: the same amount, converted by molar mass.

In the experiment the test system is Enterococcus faecalis ATCC 29212. Kind of experiment: MIC against Enterococcus faecalis ATCC 29212. It is filed as cell-based. Particulars: ATCC29212; Enterococcus faecalis ATCC 29212; read-out: MICs against Enterococcus faecalis, Activity. In a few lines:
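MIC measured by broth microdilution or agar dilution following CLSI guidelines (M7-A7 for aerobes, M11-A6 for anaerobes).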
On to `CCNC(=O)Nc1nc2cc(-c3ccc(NC(C)=O)nc3)cc(-c3nccc4cc[nH]c34)c2s1` [Example 137, N-{5-[2-(3-Ethyl-ureido)-7-(1H-pyrrolo[2,3-c]pyridin-7-yl)-benzothiazol-5-yl]-pyridin-2-yl}-acetamide], for which the MIC was in the range of 0.25 to 1 mg/L (≈ 0.53 to 2.12 µM).
In the case of `CCNC(=O)Nc1nc2cc(-c3cccnc3)cc(-c3ncccc3Cl)c2s1` [Example 126, 1-[7-(3-Chloro-pyridin-2-yl)-5-pyridin-3-yl-benzothiazol-2-yl]-3-ethyl-urea], the MIC was less than 0.25 mg/L.
In the case of `CCNC(=O)Nc1nc2cc(-c3cccnc3)cc(-c3ncccc3CO)c2s1` [Example 109, 1-Ethyl-3-[7-(3-hydroxymethyl-pyridin-2-yl)-5-pyridin-3-yl-benzothiazol-2-yl]-urea] it was 2 to 16 mg/L (≈ 4.93 to 39.5 µM); in that of `CCNC(=O)Nc1nc2cc(-c3cnc4c(c3)CCC(=O)N4)cc(-c3ccccn3)c2s1` [Example 71, 1-Ethyl-3-[5-(7-oxo-5,6,7,8-tetrahydro-[1,8]naphthyridin-3-yl)-7-pyridin-2-yl-benzothiazol-2-yl]-urea], less than 0.25 mg/L; in that of `CCNC(=O)Nc1nc2cc(-c3cccnc3)cc(-c3cc(OC)ncn3)c2s1` [Example 122, 1-Ethyl-3-[7-(6-methoxy-pyrimidin-4-yl)-5-pyridin-3-yl-benzothiazol-2-yl]-urea], less than 0.25 mg/L.
Turning to `CCNC(=O)Nc1nc2cc(-c3ccc(O)nc3)cc(-c3cccnc3)c2s1` [Example 16, 1-Ethyl-3-[5-(6-hydroxy-pyridin-3-yl)-7-pyridin-3-yl-benzothiazol-2-yl]-urea], the MIC fell in the range of 2 to 16 mg/L (≈ 5.11 to 40.9 µM).
Turning to `CCNC(=O)Nc1nc2cc(-c3ccc(CO)cc3)cc(-c3cccnc3)c2s1` [Example 18, 1-Ethyl-3-[5-(4-hydroxymethyl-phenyl)-7-pyridin-3-yl-benzothiazol-2-yl]-urea], the MIC lay within 2 to 16 mg/L (≈ 4.94 to 39.6 µM).
The figure for `CCNC(=O)Nc1nc2cc(-c3ccc(CO)nc3)cc(-c3ccccn3)c2s1` [Example 34, 1-Ethyl-3-[5-(6-hydroxymethyl-pyridin-3-yl)-7-pyridin-2-yl-benzothiazol-2-yl]-urea] is less than 0.25 mg/L; for `CCNC(=O)Nc1nc2cc(-c3cccnc3)cc(-c3cc(N(C)C)ccn3)c2s1` [Example 169, 1-[7-(4-Dimethylamino-pyridin-2-yl)-5-pyridin-3-yl-benzothiazol-2-yl]-3-ethyl-urea] it is 0.25 to 1 mg/L (≈ 0.597 to 2.39 µM); for `CCNC(=O)Nc1nc2cc(-c3cccnc3)cc(-c3ccnc(N)n3)c2s1` [Example 114, 1-[7-(2-Amino-pyrimidin-4-yl)-5-pyridin-3-yl-benzothiazol-2-yl]-3-ethyl-urea] it is less than 0.25 mg/L.
In the case of `CCNC(=O)Nc1nc2cc(-c3ccc(CCO)nc3)cc(-c3ccccn3)c2s1` [Example 58, 1-Ethyl-3-{5-[6-(2-hydroxy-ethyl)-pyridin-3-yl]-7-pyridin-2-yl-benzothiazol-2-yl}-urea] it was less than 0.25 mg/L; in that of `CCNC(=O)Nc1nc2cc(-c3ccc(NC(C)=O)nc3)cc(-c3cnccn3)c2s1` [Example 134, N-{5-[2-(3-Ethyl-ureido)-7-pyrazin-2-yl-benzothiazol-5-yl]-pyridin-2-yl}-acetamide], less than 0.25 mg/L.
The figure for `CCNC(=O)Nc1nc2cc(-c3cccnc3)cc(-c3ccc(CN)cn3)c2s1` [Example 97, 1-[7-(5-Aminomethyl-pyridin-2-yl)-5-pyridin-3-yl-benzothiazol-2-yl]-3-ethyl-urea] is 0.25 to 1 mg/L (≈ 0.618 to 2.47 µM).
Consider `CCNC(=O)Nc1nc2cc(-c3cncnc3)cc(-c3cccnc3)c2s1` [Example 13, 1-Ethyl-3-(7-pyridin-3-yl-5-pyrimidin-5-yl-benzothiazol-2-yl)-urea], for which the MIC is 0.25 to 1 mg/L (≈ 0.664 to 2.66 µM).
On to `CCNC(=O)Nc1nc2cc(-c3cccnc3)cc(-c3nc(C)ccc3C#N)c2s1` [Example 103, 1-[7-(3-Cyano-6-methyl-pyridin-2-yl)-5-pyridin-3-yl-benzothiazol-2-yl]-3-ethyl-urea], for which the MIC is less than 0.25 mg/L.
`CCNC(=O)Nc1nc2cc(-c3ccc(C)nn3)cc(-c3cccnc3)c2s1` [Example 46, 1-Ethyl-3-[5-(6-methyl-pyridazin-3-yl)-7-pyridin-3-yl-benzothiazol-2-yl]-urea]: the MIC lay in the range of 2 to 16 mg/L (≈ 5.12 to 41 µM).
Consider `CCNC(=O)Nc1nc2cc(-c3cccnc3)cc(-c3cnc(N)nc3)c2s1` [Example 42, 1-[7-(2-Amino-pyrimidin-5-yl)-5-pyridin-3-yl-benzothiazol-2-yl]-3-ethyl-urea], for which the MIC is 0.25 to 1 mg/L (≈ 0.639 to 2.55 µM).
Regarding `CCNC(=O)Nc1nc2cc(-c3cnc(N)nc3)cc(-c3cnccn3)c2s1` [Example 139, 1-[5-(2-Amino-pyrimidin-5-yl)-7-pyrazin-2-yl-benzothiazol-2-yl]-3-ethyl-urea], the MIC was less than 0.25 mg/L.
In the case of `CCNC(=O)Nc1nc2cc(-c3cnn(C)c3)cc(-c3cnn(C)c3)c2s1` [Example 7, 1-[5,7-Bis-(1-methyl-1H-pyrazol-4-yl)-benzothiazol-2-yl]-3-ethyl-urea] it was 0.25 to 1 mg/L (≈ 0.655 to 2.62 µM); in that of `CCNC(=O)Nc1nc2cc(-c3cccnc3)cc(-c3cnn(CCN4CCOCC4)c3)c2s1` [Example 81, 1-Ethyl-3-{7-[1-(2-morpholin-4-yl-ethyl)-1H-pyrazol-4-yl]-5-pyridin-3-yl-benzothiazol-2-yl}-urea], 2 to 16 mg/L (≈ 4.19 to 33.5 µM); in that of `CCNC(=O)Nc1nc2cc(-c3cccnc3)cc(-c3cnc(N)cn3)c2s1` [Example 131, 1-[7-(5-Amino-pyrazin-2-yl)-5-pyridin-3-yl-benzothiazol-2-yl]-3-ethyl-urea], less than 0.25 mg/L.
In the case of `CCNC(=O)Nc1nc2cc(-c3cnccn3)cc(-c3cnc(N)nc3)c2s1` [Example 73, 1-[7-(2-Amino-pyrimidin-5-yl)-5-pyrazin-2-yl-benzothiazol-2-yl]-3-ethyl-urea] it was 2 to 16 mg/L (≈ 5.1 to 40.8 µM).
In the case of `CCNC(=O)Nc1nc2cc(-c3ccn(CCN4CCOCC4)c(=O)c3)cc(-c3ccccn3)c2s1` [Example 63, 1-Ethyl-3-{5-[1-(2-morpholin-4-yl-ethyl)-2-oxo-1,2-dihydro-pyridin-4-yl]-7-pyridin-2-yl-benzothiazol-2-yl}-urea] it was 0.25 to 1 mg/L (≈ 0.495 to 1.98 µM); in that of `CCNC(=O)Nc1nc2cc(-c3ccc(CC(=O)NC)nc3)cc(-c3ccccn3)c2s1` [Example 70, 2-{5-[2-(3-Ethyl-ureido)-7-pyridin-2-yl-benzothiazol-5-yl]-pyridin-2-yl}-N-methyl-acetamide], less than 0.25 mg/L.
With `CCNC(=O)Nc1nc2cc(-c3cccnc3)cc(-c3cc(N)ccn3)c2s1` [Example 100, 1-[7-(4-Amino-pyridin-2-yl)-5-pyridin-3-yl-benzothiazol-2-yl]-3-ethyl-urea], the MIC was less than 0.25 mg/L.
In the case of `CCNC(=O)Nc1nc2cc(-n3cccn3)cc(-c3cccnc3)c2s1` [Example 12, 1-Ethyl-3-(5-pyrazol-1-yl-7-pyridin-3-yl-benzothiazol-2-yl)-urea] it was 2 to 16 mg/L (≈ 5.49 to 43.9 µM); in that of `CCNC(=O)Nc1nc2cc(-c3cccnc3)cc(-c3ccc(CN(C)C)cn3)c2s1` [Example 132, 1-[7-(5-Dimethylaminomethyl-pyridin-2-yl)-5-pyridin-3-yl-benzothiazol-2-yl]-3-ethyl-urea], 2 to 16 mg/L (≈ 4.62 to 37 µM); in that of `CCNC(=O)Nc1nc2cc(-c3cccnc3)cc(-c3ccc(OC)nn3)c2s1` [Example 105, 1-Ethyl-3-[7-(6-methoxy-pyridazin-3-yl)-5-pyridin-3-yl-benzothiazol-2-yl]-urea], 0.25 to 1 mg/L (≈ 0.615 to 2.46 µM).
As to `CCNC(=O)Nc1nc2cc(-c3cnn(C)c3)cc(Br)c2s1` [Example 6, 1-[7-Bromo-5-(1-methyl-1H-pyrazol-4-yl)-benzothiazol-2-yl]-3-ethyl-urea], the MIC lay in the range of 0.25 to 1 mg/L (≈ 0.657 to 2.63 µM).
For the molecule `CCNC(=O)Nc1nc2cc(-c3ccc(NC(C)=O)nc3)cc(-c3ccc(C#N)cn3)c2s1` [Example 136, N-{5-[7-(5-Cyano-pyridin-2-yl)-2-(3-ethyl-ureido)-benzothiazol-5-yl]-pyridin-2-yl}-acetamide], the MIC was less than 0.25 mg/L.
The figure for `CCNC(=O)Nc1nc2cc(-c3cnc(OC)nc3)cc(-c3cccnc3)c2s1` [Example 15, 1-Ethyl-3-[5-(2-methoxy-pyrimidin-5-yl)-7-pyridin-3-yl-benzothiazol-2-yl]-urea] is 0.25 to 1 mg/L (≈ 0.615 to 2.46 µM); for `CCNC(=O)Nc1nc2cc(-c3cccnc3)cc(-c3nc(CO)cs3)c2s1` [Example 106, 1-Ethyl-3-[7-(4-hydroxymethyl-thiazol-2-yl)-5-pyridin-3-yl-benzothiazol-2-yl]-urea] it is 0.25 to 1 mg/L (≈ 0.608 to 2.43 µM); for `CCNC(=O)Nc1nc2cc(-c3cncc(OC)c3)cc(-c3cccnc3)c2s1` [Example 31, 1-Ethyl-3-[5-(5-methoxy-pyridin-3-yl)-7-pyridin-3-yl-benzothiazol-2-yl]-urea] it is 0.25 to 1 mg/L (≈ 0.617 to 2.47 µM).
As for `CCNC(=O)Nc1nc2cc(-c3ccc(CN(CCOC)CCOC)nc3)cc(-c3ccccn3)c2s1` [Example 60, 1-[5-(6-{[Bis-(2-methoxy-ethyl)-amino]-methyl}-pyridin-3-yl)-7-pyridin-2-yl-benzothiazol-2-yl]-3-ethyl-urea], the MIC fell in the range of 0.25 to 1 mg/L (≈ 0.48 to 1.92 µM).
Regarding `CCNC(=O)Nc1nc2cc(-c3cncc(C(=O)NCCN(C)C)c3)cc(-c3ccccn3)c2s1` [Example 64, N-(2-Dimethylamino-ethyl)-5-[2-(3-ethyl-ureido)-7-pyridin-2-yl-benzothiazol-5-yl]-nicotinamide], the MIC is 2 to 16 mg/L (≈ 4.08 to 32.7 µM).
The figure for `CCNC(=O)Nc1nc2cc(-c3ccccn3)cc(-c3cccnc3)c2s1` [Example 155, 1-Ethyl-3-(5-pyridin-2-yl-7-pyridin-3-yl-benzothiazol-2-yl)-urea] is 2 to 16 mg/L (≈ 5.33 to 42.6 µM).
In the case of `CCNC(=O)Nc1nc2cc(-c3cccc(F)c3)cc(-c3cccnc3)c2s1` [Example 28, 1-Ethyl-3-[5-(3-fluoro-phenyl)-7-pyridin-3-yl-benzothiazol-2-yl]-urea] it was 0.25 to 1 mg/L (≈ 0.637 to 2.55 µM).
In the case of `CCNC(=O)Nc1nc2cc(I)cc(-c3cccnc3)c2s1` [Example 8, 1-Ethyl-3-(5-iodo-7-pyridin-3-yl-benzothiazol-2-yl)-urea], the MIC was in the range of 2 to 16 mg/L (≈ 4.71 to 37.7 µM).
The figure for `CCNC(=O)Nc1nc2cc(-c3ccncc3)cc(-c3cccnc3)c2s1` [Example 30, 1-Ethyl-3-(5-pyridin-4-yl-7-pyridin-3-yl-benzothiazol-2-yl)-urea] is 0.25 to 1 mg/L (≈ 0.666 to 2.66 µM); for `CCNC(=O)Nc1nc2cc(-c3cccnc3)cc(-c3cscn3)c2s1` [Example 158, 1-Ethyl-3-(5-pyridin-3-yl-7-thiazol-4-yl-benzothiazol-2-yl)-urea] it is 0.25 to 1 mg/L (≈ 0.655 to 2.62 µM).
